Measured values as given in patent US11166460B2, “α-amino acrylate microbicide, and preparation method therefor and uses thereof” (priority 2017, dated 2021).
Where two headings read alike, the source gives them in different places.

Experiments:
[1] = test system: Pellicularia sasakii; assay: Fungicidal activity, fungi growth rate method, PS; assay type: cell-based; settings: 50 μg/mL
[2] = test system: tobacco mosaic virus (TMV); assay: Anti-TMV inducing activity (induction mode), tobacco seedlings; assay type: in vivo; settings: Tobacco mosaic virus, read-out: Anti-TMV activity, Induction effect (inhibition), 100 μg/mL, tobacco seedlings
[3] = test system: Rhizoctonia cerealis; assay: Fungicidal activity, fungi growth rate method, RC; assay type: cell-based; settings: Ceratobasidium cereale, 50 μg/mL
[4] = test system: Physalospora piricola; assay: Fungicidal activity, fungi growth rate method, PP; assay type: cell-based; settings: 50 μg/mL
[5] = test system: tobacco mosaic virus (TMV); assay: Anti-TMV curative activity (treatment mode), live friction inoculation on tobacco seedlings; assay type: in vivo; settings: Tobacco mosaic virus, read-out: Anti-TMV activity, Curative effect (inhibition), 100 μg/mL, tobacco seedlings, checked on seventh day
[6] = test system: Sclerotinia sclerotiorum; assay: microbe, parasite or virus in culture; assay type: cell-based; settings: Sclerotinia sclerotiorum, 50 μg/mL
[7] = test system: wheat Gibberella zeae; assay: microbe, parasite or virus in culture; assay type: cell-based; settings: Fusarium graminearum
[8] = test system: Alternaria solani; assay: Fungicidal activity, fungi growth rate method, AS; assay type: cell-based; settings: Alternaria solani, 50 μg/mL
[9] = test system: Phytophthora infestans (Mont) de Bary; assay: microbe, parasite or virus in culture; assay type: cell-based; settings: Phytophthora infestans
[10] = test system: tobacco mosaic virus (TMV); assay: Anti-TMV protective activity (protection mode), live friction inoculation on tobacco seedlings; assay type: in vivo; settings: Tobacco mosaic virus, read-out: Anti-TMV activity, Protection effect (inhibition)
[11] = test system: tobacco mosaic virus (TMV); assay: Anti-TMV inactivation activity (inactivation mode), compound mixed with TMV before inoculation of tobacco leaves; assay type: in vivo; settings: Tobacco mosaic virus, read-out: Anti-TMV activity, Inactivation effect (inhibition)
[12] = test system: Botrytis cinerea; assay: Fungicidal activity, fungi growth rate method, BC; assay type: cell-based; settings: Botrytis cinerea, 50 μg/mL
[13] = test system: Cercospora arachidicola; assay: Fungicidal activity, fungi growth rate method, CA; assay type: cell-based; settings: Mycosphaerella arachidis, 50 μg/mL
[14] = read-out: Fungicidal activity, inhibition, PS
[15] = read-out: Fungicidal activity, inhibition, RC
[16] = read-out: Fungicidal activity, inhibition, PP
[17] = read-out: Fungicidal activity, inhibition, SS
[18] = read-out: Fungicidal activity, inhibition, GZ
[19] = read-out: Fungicidal activity, inhibition, AS
[20] = read-out: Fungicidal activity, inhibition, PI
[21] = read-out: Fungicidal activity, inhibition, BC
[22] = read-out: Fungicidal activity, inhibition, CA
[23] = read-out: Fungicidal activity (inhibition) against PS: Pellicularia sasakii
[24] = read-out: Fungicidal activity (inhibition) against RC: Rhizoctonia cerealis
[25] = read-out: Fungicidal activity (inhibition) against PP: Physalospora piricola
[26] = read-out: Fungicidal activity (inhibition) against SS: Sclerotinia sclerotiorum
[27] = read-out: Fungicidal activity (inhibition) against GZ: wheat Gibberella zeae
[28] = read-out: Fungicidal activity (inhibition) against AS: Alternaria solani
[29] = read-out: Fungicidal activity (inhibition) against PI: Phytophthora infestans (Mont) de Bary
[30] = read-out: Fungicidal activity (inhibition) against BC: Botrytis cinerea
[31] = read-out: Fungicidal activity (inhibition) against CA: Cercospora arachidicola

Row | Structure (SMILES) | inhibition at 50 µg/mL [1, 14] [%] | inhibition at 100 µg/mL [2] [%] | inhibition at 50 µg/mL [3, 15] [%] | inhibition at 50 µg/mL [4, 16] [%] | melting point [°C] | inhibition at 100 µg/mL [5] [%] | inhibition at 50 µg/mL [6, 17] [%] | inhibition at 50 µg/mL [7, 18] [%] | inhibition at 50 µg/mL [8, 19] [%] | inhibition at 50 µg/mL [9, 20] [%] | inhibition at 100 µg/mL [10] [%] | inhibition at 100 µg/mL [11] [%] | inhibition at 50 µg/mL [12, 21] [%] | inhibition at 50 µg/mL [13, 22] [%] | inhibition at 50 µg/mL [1, 23] [%] | inhibition at 50 µg/mL [3, 24] [%] | inhibition at 50 µg/mL [4, 25] [%] | inhibition at 50 µg/mL [6, 26] [%] | inhibition at 50 µg/mL [7, 27] [%] | inhibition at 50 µg/mL [8, 28] [%] | also measured
1 | COC(=O)CCCNC(=O)/C(=C/c1ccccc1)NC(=O)c1ccccc1 [Compound 36, (Z)-N-[1-[[1-(4-methylbutanoate)amino]carbonyl]-2-phenylethenyl]benzamide] | 0 | 41 | 16 | 0 | 110 to 111 | 36 | 50 | 0 | 21 | 2 | 13 | 0 | 10 | 10 |  |  |  |  |  |  | 
2 | COC(=O)[C@H]1CCCN1C(=O)/C(=C/c1ccccc1)NC(=O)c1ccccc1 [Compound 37, (R,Z)-N-[1-[(2-methylpyrrolidinecarboxylate)]carbonyl-2-phenylethenyl]benzamide] | 6 | 40 | 13 | 0 | 155 to 157 | 25 | 56 | 23 | 17 | 5 | 2 | 0 | 21 | 13 |  |  |  |  |  |  | 
3 | O=C(N/C(=C\c1ccccc1)C(=O)N1CCOCC1)c1ccccc1 [Compound 38, (Z)-N-[1-(4-morpholinylcarbonyl)-2-phenylethenyl]benzamide] | 13 | 46 | 9 | 0 | 147 to 149 | 0 | 77 | 6 | 8 | 11 | 38 | 0 | 4 | 7 | < 30 | < 20 | < 20 | 77 | < 45 | < 30 | inhibition at 50 µg/mL [9, 29]: < 25%; inhibition at 50 µg/mL [12, 30]: ≤ 20%; inhibition at 50 µg/mL [13, 31]: < 25%
4 | O=C(NC1CC1)/C(=C/c1ccccc1)NC(=O)c1ccccc1 [Compound 39, (Z)-N-[1-[(cyclopropylamino)carbonyl]-2-phenylethenyl]benzamide] | 6 | 34 | 3 | 3 | 185 to 186 | 18 | 67 | 13 | 17 | 11 | 10 | 0 | 9 | 13 | < 30 | < 20 | < 20 | 67 | < 45 | < 30 | inhibition at 50 µg/mL [9, 29]: < 25%; inhibition at 50 µg/mL [12, 30]: ≤ 20%; inhibition at 50 µg/mL [13, 31]: < 25%
5 | O=C(NC1CCCCC1)/C(=C/c1ccccc1)NC(=O)c1ccccc1 [Compound 40, (Z)-N-[1-[(cyclohexylamino)carbonyl]-2-phenylethenyl]benzamide] | 6 | 45 | 10 | 0 | 204 to 206 | 0 | 56 | 11 | 13 | 11 | 0 | 0 | 10 | 10 | < 30 | < 20 | < 20 | 56 | < 45 | < 30 | inhibition at 50 µg/mL [9, 29]: < 25%; inhibition at 50 µg/mL [12, 30]: ≤ 20%; inhibition at 50 µg/mL [13, 31]: < 25%
